Assay results: patent publication US9340590B2 (priority 2011, dated 2016)
Where two headings read alike, the source gives them in different places. Positions of bridges follow the written chain, without caps; N, C: chain ends. Residues, ends and D or L forms follow the SMILES beside them.

Experiments:
Assay in all cases: cell-based
hNav1.7 = hNav1.7 (Homo sapiens, UniProt Q15858); format: cell-based
hNav1.5 = hNav1.5 (Homo sapiens, UniProt Q14524)
hNav1.3 = hNav1.3 (Homo sapiens, UniProt Q9NY46); conditions: IonWorks Quattro, read-out: IWQ Use Nav1.3
Sequence of hNav1.3 (Q9NY46 whole entry, looked up): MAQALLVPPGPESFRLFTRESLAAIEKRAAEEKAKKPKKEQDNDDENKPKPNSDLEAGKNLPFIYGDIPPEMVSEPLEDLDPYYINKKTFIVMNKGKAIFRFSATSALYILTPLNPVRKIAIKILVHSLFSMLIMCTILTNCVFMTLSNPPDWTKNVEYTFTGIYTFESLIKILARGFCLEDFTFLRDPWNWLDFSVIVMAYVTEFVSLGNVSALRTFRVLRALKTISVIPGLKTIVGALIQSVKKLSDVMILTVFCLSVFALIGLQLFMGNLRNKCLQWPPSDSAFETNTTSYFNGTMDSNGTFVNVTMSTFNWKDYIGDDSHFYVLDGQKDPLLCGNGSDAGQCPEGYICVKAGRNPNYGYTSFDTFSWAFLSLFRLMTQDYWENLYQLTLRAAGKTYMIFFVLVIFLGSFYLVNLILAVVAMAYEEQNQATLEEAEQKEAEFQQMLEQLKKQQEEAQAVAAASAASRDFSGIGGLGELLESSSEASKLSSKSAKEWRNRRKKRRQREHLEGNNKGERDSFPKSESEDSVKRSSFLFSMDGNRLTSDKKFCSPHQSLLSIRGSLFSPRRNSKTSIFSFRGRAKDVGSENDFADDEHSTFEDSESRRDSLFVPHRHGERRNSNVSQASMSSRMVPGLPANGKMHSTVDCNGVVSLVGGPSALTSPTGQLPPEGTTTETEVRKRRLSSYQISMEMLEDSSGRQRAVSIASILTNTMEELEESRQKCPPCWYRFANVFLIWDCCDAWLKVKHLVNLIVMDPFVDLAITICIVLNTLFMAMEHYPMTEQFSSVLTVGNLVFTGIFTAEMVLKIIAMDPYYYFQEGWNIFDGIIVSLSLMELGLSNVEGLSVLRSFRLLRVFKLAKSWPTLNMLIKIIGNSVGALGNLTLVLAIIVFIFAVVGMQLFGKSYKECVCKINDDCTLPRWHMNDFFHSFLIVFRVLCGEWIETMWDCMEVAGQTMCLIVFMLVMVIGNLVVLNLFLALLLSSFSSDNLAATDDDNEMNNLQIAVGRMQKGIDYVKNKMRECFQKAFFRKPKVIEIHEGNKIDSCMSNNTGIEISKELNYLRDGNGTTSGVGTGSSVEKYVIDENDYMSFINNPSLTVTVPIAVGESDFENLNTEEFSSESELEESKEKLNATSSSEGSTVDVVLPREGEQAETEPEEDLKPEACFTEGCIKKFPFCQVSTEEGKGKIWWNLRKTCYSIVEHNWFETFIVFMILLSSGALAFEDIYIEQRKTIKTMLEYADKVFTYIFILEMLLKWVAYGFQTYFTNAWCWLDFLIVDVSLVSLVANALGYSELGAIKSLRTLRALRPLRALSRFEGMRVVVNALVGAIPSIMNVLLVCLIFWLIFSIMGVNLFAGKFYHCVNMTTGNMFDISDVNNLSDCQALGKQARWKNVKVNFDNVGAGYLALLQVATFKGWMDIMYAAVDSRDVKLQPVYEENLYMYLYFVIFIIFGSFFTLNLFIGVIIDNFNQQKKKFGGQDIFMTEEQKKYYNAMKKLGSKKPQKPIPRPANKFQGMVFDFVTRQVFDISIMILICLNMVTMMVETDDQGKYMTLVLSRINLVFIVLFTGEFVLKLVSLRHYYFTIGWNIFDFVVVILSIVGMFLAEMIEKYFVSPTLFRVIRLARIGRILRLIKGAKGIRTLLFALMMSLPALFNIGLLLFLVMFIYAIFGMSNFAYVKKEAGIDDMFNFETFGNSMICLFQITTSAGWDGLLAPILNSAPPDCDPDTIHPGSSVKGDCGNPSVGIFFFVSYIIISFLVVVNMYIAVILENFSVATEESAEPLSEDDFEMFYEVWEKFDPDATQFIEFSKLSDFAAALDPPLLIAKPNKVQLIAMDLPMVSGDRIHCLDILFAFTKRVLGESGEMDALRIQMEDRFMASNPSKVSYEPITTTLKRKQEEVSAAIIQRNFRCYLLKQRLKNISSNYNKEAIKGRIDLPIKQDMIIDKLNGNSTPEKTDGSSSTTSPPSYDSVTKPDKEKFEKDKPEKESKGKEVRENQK

[1] = IonWorks Quattro, use-dependent, […], read-out: IWQ Use Nav1.5

Sequence of hNav1.5 (Q14524 whole entry, looked up): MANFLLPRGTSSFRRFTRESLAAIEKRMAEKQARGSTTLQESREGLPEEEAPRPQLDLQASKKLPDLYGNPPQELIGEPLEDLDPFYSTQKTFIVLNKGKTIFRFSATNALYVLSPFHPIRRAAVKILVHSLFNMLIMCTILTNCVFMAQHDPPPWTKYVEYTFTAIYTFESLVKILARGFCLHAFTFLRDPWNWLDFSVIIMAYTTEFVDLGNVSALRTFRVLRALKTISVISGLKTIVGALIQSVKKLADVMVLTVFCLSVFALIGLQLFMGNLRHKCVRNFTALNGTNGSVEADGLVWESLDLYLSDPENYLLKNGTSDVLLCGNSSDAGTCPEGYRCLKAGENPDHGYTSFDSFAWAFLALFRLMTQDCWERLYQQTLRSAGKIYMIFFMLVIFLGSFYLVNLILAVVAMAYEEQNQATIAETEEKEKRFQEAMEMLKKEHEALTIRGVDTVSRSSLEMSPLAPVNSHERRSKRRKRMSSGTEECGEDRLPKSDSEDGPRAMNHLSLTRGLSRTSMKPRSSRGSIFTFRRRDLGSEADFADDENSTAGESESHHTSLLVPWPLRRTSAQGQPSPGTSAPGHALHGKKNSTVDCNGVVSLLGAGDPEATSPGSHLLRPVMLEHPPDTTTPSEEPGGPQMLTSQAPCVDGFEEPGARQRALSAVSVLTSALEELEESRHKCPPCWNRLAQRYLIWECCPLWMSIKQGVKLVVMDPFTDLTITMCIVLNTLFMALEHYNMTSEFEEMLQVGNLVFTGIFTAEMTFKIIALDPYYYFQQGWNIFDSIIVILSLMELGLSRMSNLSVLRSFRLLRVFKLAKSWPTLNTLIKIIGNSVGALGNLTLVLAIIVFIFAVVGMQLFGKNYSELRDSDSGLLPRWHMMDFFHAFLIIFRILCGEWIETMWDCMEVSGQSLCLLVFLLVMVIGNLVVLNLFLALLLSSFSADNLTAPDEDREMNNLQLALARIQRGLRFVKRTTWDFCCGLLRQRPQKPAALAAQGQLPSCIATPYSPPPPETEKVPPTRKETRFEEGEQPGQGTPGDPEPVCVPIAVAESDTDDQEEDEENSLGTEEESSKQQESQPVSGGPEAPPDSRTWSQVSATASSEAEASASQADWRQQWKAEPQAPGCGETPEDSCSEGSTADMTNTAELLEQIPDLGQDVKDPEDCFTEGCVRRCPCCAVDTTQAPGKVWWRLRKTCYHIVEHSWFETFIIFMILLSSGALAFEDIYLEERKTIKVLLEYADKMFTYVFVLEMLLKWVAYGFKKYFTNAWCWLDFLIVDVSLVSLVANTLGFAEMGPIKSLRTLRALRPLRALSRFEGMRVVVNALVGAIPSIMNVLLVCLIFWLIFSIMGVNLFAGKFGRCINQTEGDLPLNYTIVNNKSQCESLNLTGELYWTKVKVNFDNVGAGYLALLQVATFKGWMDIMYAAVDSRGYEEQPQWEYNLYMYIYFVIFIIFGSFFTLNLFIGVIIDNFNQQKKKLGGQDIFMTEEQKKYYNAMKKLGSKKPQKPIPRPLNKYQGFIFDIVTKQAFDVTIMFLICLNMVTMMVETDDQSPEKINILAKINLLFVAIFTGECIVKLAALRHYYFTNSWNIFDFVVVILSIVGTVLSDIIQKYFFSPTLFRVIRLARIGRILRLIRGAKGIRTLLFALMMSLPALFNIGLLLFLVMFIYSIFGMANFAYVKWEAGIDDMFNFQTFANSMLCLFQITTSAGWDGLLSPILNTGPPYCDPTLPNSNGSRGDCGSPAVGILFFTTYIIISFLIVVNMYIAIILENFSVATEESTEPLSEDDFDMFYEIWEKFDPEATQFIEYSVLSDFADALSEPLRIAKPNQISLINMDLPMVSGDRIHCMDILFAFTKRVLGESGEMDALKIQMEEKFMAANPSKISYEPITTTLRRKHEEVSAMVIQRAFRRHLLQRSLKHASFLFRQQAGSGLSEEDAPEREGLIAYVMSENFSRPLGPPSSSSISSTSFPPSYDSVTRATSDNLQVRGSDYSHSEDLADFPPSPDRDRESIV

Question: For `CC[C@H](C)[C@@H]1NC(=O)[C@@H]2CSSC[C@@H]3NC(=O)[C@H](C(C)C)NC(=O)[C@H](CC(C)C)NC(=O)[C@H](CC(N)=O)NC(=O)[C@@H]4CCCN4C(=O)[C@H](CCCNC(=N)N)NC(=O)[C@H](CSSC[C@H](NC(=O)[C@@H](N)CC(=O)O)C(=O)N[C@@H](CC(C)C)C(=O)NCC(=O)N[C@@H](Cc4ccccc4)C(=O)N[C@@H](CCSC)C(=O)N[C@@H](CCCNC(=N)N)C(=O)N[C@@H](CCCCN)C(=O)N2)NC(=O)[C@H](CSSC[C@@H](C(=O)N[C@@H](CCCCN)C(=O)N[C@@H](Cc2ccc(O)cc2)C(=O)N[C@@H](CCCCN)C(=O)N[C@@H](Cc2ccccc2)C(N)=O)NC(=O)[C@H](Cc2c[nH]c4ccccc24)NC(=O)[C@H](CCCCN)NC(=O)[C@H](Cc2cnc[nH]2)NC(=O)[C@H]([C@@H](C)O)NC(=O)[C@H](CCCNC(=N)N)NC(=O)[C@H](CO)NC3=O)NC(=O)[C@H](CCCCN)NC(=O)[C@H](CC(=O)O)NC(=O)[C@H](CC(N)=O)NC(=O)[C@H](CC(=O)O)NC(=O)[C@@H]2CCCN2C1=O` [compound 58] (H-DCLGFMRKCIPDNDKCCRPNLVCSRTHKWCKYKF-NH2; disulfide 2-17, 9-23, 16-30), which IC50 (hNav1.7; Table 26, IonWorks Quattro, use, […], read-out: IWQ Use Nav1.7) is on record?
Answer: 70 nM

Question: What about the IC50 (hNav1.5; Table 26, IonWorks Quattro, use, […], read-out: IWQ Use Nav1.5) of the same compound?
Answer: 9.56 µM

Question: What about the IC50 (hNav1.3; Table 26, use, […]) of the same compound?
Answer: 70 nM

Question: How did the IC50 (hNav1.7; IonWorks Quattro, use-dependent, […], read-out: IWQ Use Nav1.7) turn out when `CC[C@H](C)[C@@H]1NC(=O)[C@@H]2CSSC[C@@H]3NC(=O)[C@H](C(C)C)NC(=O)[C@H](CC(C)C)NC(=O)[C@H](CC(N)=O)NC(=O)[C@@H]4CCCN4C(=O)[C@H](CCCNC(=N)N)NC(=O)[C@H](CSSC[C@H](NC(=O)[C@@H](N)CC(=O)O)C(=O)N[C@@H](CC(C)C)C(=O)NCC(=O)N[C@@H](Cc4ccccc4)C(=O)N[C@@H](CCSC)C(=O)N[C@@H](CCCNC(=N)N)C(=O)N[C@@H](CCCCN)C(=O)N2)NC(=O)[C@H](CSSC[C@@H](C(=O)N[C@@H](CCCCN)C(=O)N[C@@H](Cc2ccc(O)cc2)C(=O)N[C@H](C(=O)N[C@@H](CCCCN)C(N)=O)C(C)C)NC(=O)[C@H](Cc2c[nH]c4ccccc24)NC(=O)[C@H](CCCCN)NC(=O)[C@H](Cc2cnc[nH]2)NC(=O)[C@H]([C@@H](C)O)NC(=O)[C@H](CCCNC(=N)N)NC(=O)[C@H](CO)NC3=O)NC(=O)[C@H](CCCCN)NC(=O)[C@H](CC(=O)O)NC(=O)[C@H](CC(N)=O)NC(=O)[C@H](CC(=O)O)NC(=O)[C@@H]2CCCN2C1=O` [compound 59] (H-DCLGFMRKCIPDNDKCCRPNLVCSRTHKWCKYVK-NH2; disulfide 2-17, 9-23, 16-30) was run?
Answer: 5680 nM

Question: And the IC50 (hNav1.5; [1])?
Answer: 18.1 µM

Question: And the IC50 (hNav1.3; use-dependent, […])?
Answer: 7740 nM

Question: What does the source list for `CC[C@H](C)[C@@H]1NC(=O)[C@@H]2CSSC[C@@H]3NC(=O)[C@H](C(C)C)NC(=O)[C@H](CC(C)C)NC(=O)[C@H](CC(N)=O)NC(=O)[C@@H]4CCCN4C(=O)[C@H](CCCNC(=N)N)NC(=O)[C@H](CSSC[C@H](NC(=O)[C@@H](N)CC(=O)O)C(=O)N[C@@H](CC(C)C)C(=O)NCC(=O)N[C@@H](Cc4ccccc4)C(=O)N[C@@H](CCSC)C(=O)N[C@@H](CCCNC(=N)N)C(=O)N[C@@H](CCCCN)C(=O)N2)NC(=O)[C@H](CSSC[C@@H](C(=O)N[C@@H](CCCCN)C(=O)N[C@@H](Cc2ccc(O)cc2)C(=O)N[C@H](C(=O)N[C@@H](Cc2ccccc2)C(=O)N[C@@H](CCCCN)C(N)=O)C(C)C)NC(=O)[C@H](Cc2c[nH]c4ccccc24)NC(=O)[C@H](CCCCN)NC(=O)[C@H](Cc2c[nH]cn2)NC(=O)[C@H]([C@@H](C)O)NC(=O)[C@H](CCCNC(=N)N)NC(=O)[C@H](CO)NC3=O)NC(=O)[C@H](CCCCN)NC(=O)[C@H](CC(=O)O)NC(=O)[C@H](CC(N)=O)NC(=O)[C@H](CC(=O)O)NC(=O)[C@@H]2CCCN2C1=O` [compound 60]?
Answer: IC50 (hNav1.7; IonWorks Quattro, use-dependent, […], read-out: IWQ Use Nav1.7 (μm)): 590 nM; IC50 (hNav1.5; [1]): 12.5 µM; IC50 (hNav1.3; use-dependent, […]): 210 nM

Question: Which results are given for `CSCC[C@@H]1NC(=O)[C@H](Cc2ccccc2)NC(=O)CNC(=O)[C@H](CC(C)C)NC(=O)[C@@H](NC(=O)[C@@H](N)CC(=O)O)CSSC[C@@H]2NC(=O)[C@@H]3CSSC[C@@H](C(=O)N[C@@H](CCCCN)C(=O)N[C@@H](Cc4ccc(O)cc4)C(=O)N[C@H](C(=O)N[C@@H](Cc4ccccc4)C(N)=O)C(C)C)NC(=O)[C@H](Cc4c[nH]c5ccccc45)NC(=O)[C@H](CCCCN)NC(=O)[C@H](Cc4cnc[nH]4)NC(=O)[C@H]([C@@H](C)O)NC(=O)[C@H](CCCNC(=N)N)NC(=O)[C@H](CO)NC(=O)[C@H](CSSC[C@H](NC(=O)[C@H](CCCCN)NC(=O)[C@H](CCCNC(=N)N)NC1=O)C(=O)N[C@@H](CCCNC(=N)N)C(=O)N1CCC[C@H]1C(=O)N[C@@H](CC(=O)O)C(=O)N[C@@H](CC(N)=O)C(=O)N[C@@H](CC(=O)O)C(=O)N[C@@H](CCCCN)C(=O)N3)NC(=O)[C@H](C(C)C)NC(=O)[C@H](CC(C)C)NC(=O)[C@H](CC(N)=O)NC(=O)[C@@H]1CCCN1C(=O)[C@H](CCCNC(=N)N)NC2=O` [compound 66] (H-DCLGFMRKCRPDNDKCCRPNLVCSRTHKWCKYVF-NH2; disulfide 2-17, 9-23, 16-30)?
Answer: IC50 (hNav1.7): 160 nM; IC50 (hNav1.5; IonWorks Quattro, Use, read-out: IWQ Use Nav1.5): 15.2 µM; IC50 (hNav1.3; Use): 110 nM

Question: Which results are given for `CC[C@H](C)[C@@H]1NC(=O)[C@@H]2CSSC[C@@H]3NC(=O)[C@H](C(C)C)NC(=O)[C@H](CC(C)C)NC(=O)[C@H](CC(N)=O)NC(=O)[C@@H]4CCCN4C(=O)[C@H](CCCNC(=N)N)NC(=O)[C@H](CSSC[C@H](NC(=O)[C@@H](N)CC(=O)O)C(=O)N[C@@H](CC(C)C)C(=O)NCC(=O)N[C@@H](Cc4ccccc4)C(=O)N[C@@H](CCSC)C(=O)N[C@@H](CCCNC(=N)N)C(=O)N[C@@H](CCCCN)C(=O)N2)NC(=O)[C@H](CSSC[C@@H](C(=O)N[C@@H](CCCCN)C(=O)N[C@@H](Cc2ccc(O)cc2)C(=O)N[C@H](C(=O)N[C@@H](Cc2ccccc2)C(N)=O)C(C)C)NC(=O)[C@H](Cc2c[nH]c4ccccc24)NC(=O)[C@H](CCCCN)NC(=O)[C@H](Cc2cnc[nH]2)NC(=O)[C@H]([C@@H](C)O)NC(=O)[C@H](CCCNC(=N)N)NC(=O)[C@H](CO)NC3=O)NC(=O)[C@H](CCCNC(=N)N)NC(=O)[C@H](CC(=O)O)NC(=O)[C@H](CC(N)=O)NC(=O)[C@H](CC(=O)O)NC(=O)[C@@H]2CCCN2C1=O` [compound 68] (H-DCLGFMRKCIPDNDRCCRPNLVCSRTHKWCKYVF-NH2; disulfide 2-17, 9-23, 16-30)?
Answer: IC50 (hNav1.7; IonWorks Quattro, Use, read-out: IWQ Use Nav1.7): 200 nM; IC50 (hNav1.5; IWQ Use Nav1.5 (μM)): 18.1 µM; IC50 (hNav1.3; Use): 140 nM

Question: For `CC[C@H](C)[C@@H]1NC(=O)[C@@H]2CSSC[C@@H]3NC(=O)[C@H](C(C)C)NC(=O)[C@H](CC(C)C)NC(=O)[C@H](CC(N)=O)NC(=O)[C@@H]4CCCN4C(=O)[C@H](CCCNC(=N)N)NC(=O)[C@H](CSSC[C@H](NC(=O)[C@@H](N)CC(=O)O)C(=O)N[C@@H](CC(C)C)C(=O)NCC(=O)N[C@@H](Cc4ccccc4)C(=O)N[C@@H](CCSC)C(=O)N[C@@H](CCCNC(=N)N)C(=O)N[C@@H](CCCCN)C(=O)N2)NC(=O)[C@H](CSSC[C@@H](C(=O)N[C@@H](CCCCN)C(=O)N[C@@H](Cc2ccc(O)cc2)C(=O)N[C@H](C(=O)N[C@@H](Cc2ccccc2)C(N)=O)C(C)C)NC(=O)[C@H](Cc2c[nH]c4ccccc24)NC(=O)[C@H](CCCCN)NC(=O)[C@H](Cc2cnc[nH]2)NC(=O)[C@H](CCCNC(=N)N)NC(=O)[C@H](CCCNC(=N)N)NC(=O)[C@H](CO)NC3=O)NC(=O)[C@H](CCCCN)NC(=O)[C@H](CC(=O)O)NC(=O)[C@H](CC(N)=O)NC(=O)[C@H](CC(=O)O)NC(=O)[C@@H]2CCCN2C1=O` [compound 70] (H-DCLGFMRKCIPDNDKCCRPNLVCSRRHKWCKYVF-NH2; disulfide 2-17, 9-23, 16-30), which IC50 (hNav1.7; Table 22, IonWorks Quattro, use, […], read-out: IWQ Use Nav1.7) is on record?
Answer: 30 nM

Question: And the IC50 (hNav1.5; IWQ Use Nav1.5 (μM))?
Answer: 3.06 µM

Question: What about the IC50 (hNav1.3; Table 22, use, […]) of the same compound?
Answer: 8 nM

Question: How did the IC50 (hNav1.7) turn out when `CC[C@H](C)[C@@H]1NC(=O)[C@@H]2CSSC[C@@H]3NC(=O)[C@H](C(C)C)NC(=O)[C@H](CC(C)C)NC(=O)[C@H](CC(N)=O)NC(=O)[C@@H]4CCCN4C(=O)[C@H](CCCNC(=N)N)NC(=O)[C@H](CSSC[C@H](NC(=O)[C@@H](N)CC(=O)O)C(=O)N[C@@H](CC(C)C)C(=O)NCC(=O)N[C@@H](Cc4ccccc4)C(=O)N[C@@H](CCSC)C(=O)N[C@@H](CCCNC(=N)N)C(=O)N[C@@H](CCCCN)C(=O)N2)NC(=O)[C@H](CSSC[C@@H](C(=O)N[C@@H](CCCCN)C(=O)N[C@@H](Cc2ccc(O)cc2)C(=O)N[C@H](C(=O)N[C@@H](Cc2ccccc2)C(N)=O)C(C)C)NC(=O)[C@H](Cc2c[nH]c4ccccc24)NC(=O)[C@H](CCCCN)NC(=O)[C@H](CCCNC(=N)N)NC(=O)[C@H]([C@@H](C)O)NC(=O)[C@H](CCCNC(=N)N)NC(=O)[C@H](CO)NC3=O)NC(=O)[C@H](CCCCN)NC(=O)[C@H](CC(=O)O)NC(=O)[C@H](CC(N)=O)NC(=O)[C@H](CC(=O)O)NC(=O)[C@@H]2CCCN2C1=O` [compound 71] (H-DCLGFMRKCIPDNDKCCRPNLVCSRTRKWCKYVF-NH2; disulfide 2-17, 9-23, 16-30) was run?
Answer: 510 nM

Question: And the IC50 (hNav1.5; Table 23, IonWorks Quattro, use, […], read-out: IWQ Use Nav1.5)?
Answer: 5.22 µM

Question: What about the IC50 (hNav1.3; Table 23, use, […]) of the same compound?
Answer: 510 nM
